Assay results: ChEMBL document CHEMBL1201862, “PubChem BioAssay data set” (2004)
Activity calls are given as the source filed them.

How the values were obtained:
[1] = system: HEK293; test: EBV LMP1 TES2 canonical NF-kB signalling blockers – cell-based, HEK293, luciferase, cherry-pick, dose response (AID 588343); type: functional; details: Homo sapiens
[2] = A549 cell cytotoxicity, dose response, cytotoxicity control, plate reader, cherry-pick, antagonist series (AID 743412); type: functional, cell-based
[3] = blockers of bursicon-stimulated LGR2 cAMP reporter – cell-based, HEK293, CRE-luciferase reporter, cherry pick, set 2, dose response (AID 743343); type: functional;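 also: transfected cells were stimulated with diluted bursicon conditioned medium after compound addition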
[4] = blockade of melanocortin 4 receptor signaling – cell-based, plate reader, cherry pick, counter-screen for LGR2 antagonist project, dose response (AID 743444); type: functional;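 also: transfected HEK 293 cells stimulated with alpha-MSH peptide; potency of inhibitors of the alpha-MSH evoked signal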
[5] = molecular target: Beta-galactosidase (Escherichia coli, UniProt Q8VNN2); test: Dose response counterscreen for EBI2 assay utilizing the enzyme, b-galactosidase.; type: functional
Beta-galactosidase, sequence (Q8VNN2 whole entry): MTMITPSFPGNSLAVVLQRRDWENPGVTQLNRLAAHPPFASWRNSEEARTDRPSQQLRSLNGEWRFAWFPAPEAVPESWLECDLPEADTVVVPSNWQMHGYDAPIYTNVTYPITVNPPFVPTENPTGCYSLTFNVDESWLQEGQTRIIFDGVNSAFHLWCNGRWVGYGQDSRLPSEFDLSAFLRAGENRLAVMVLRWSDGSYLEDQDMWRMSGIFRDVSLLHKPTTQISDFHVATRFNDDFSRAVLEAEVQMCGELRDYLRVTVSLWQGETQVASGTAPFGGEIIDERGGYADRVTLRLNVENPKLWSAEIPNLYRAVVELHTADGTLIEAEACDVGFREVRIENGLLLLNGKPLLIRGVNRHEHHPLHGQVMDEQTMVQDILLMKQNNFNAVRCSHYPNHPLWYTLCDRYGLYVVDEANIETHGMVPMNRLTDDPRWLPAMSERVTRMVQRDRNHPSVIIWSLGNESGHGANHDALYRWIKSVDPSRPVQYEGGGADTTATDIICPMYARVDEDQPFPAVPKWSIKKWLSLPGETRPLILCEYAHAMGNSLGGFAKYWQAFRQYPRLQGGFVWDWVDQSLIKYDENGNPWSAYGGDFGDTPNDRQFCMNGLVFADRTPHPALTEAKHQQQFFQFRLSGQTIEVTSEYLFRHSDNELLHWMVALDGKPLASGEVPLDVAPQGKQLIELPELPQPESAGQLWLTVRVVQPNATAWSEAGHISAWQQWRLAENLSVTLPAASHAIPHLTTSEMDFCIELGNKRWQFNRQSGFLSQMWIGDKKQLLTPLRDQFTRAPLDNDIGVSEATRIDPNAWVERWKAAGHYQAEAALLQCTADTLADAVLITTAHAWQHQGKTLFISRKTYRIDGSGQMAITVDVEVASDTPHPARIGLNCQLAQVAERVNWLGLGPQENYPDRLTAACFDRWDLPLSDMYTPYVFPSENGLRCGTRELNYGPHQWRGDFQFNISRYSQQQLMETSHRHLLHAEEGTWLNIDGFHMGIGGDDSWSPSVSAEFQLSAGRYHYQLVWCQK

[6] = molecular target: T1, Replicative DNA helicase DnaB (Mycobacterium tuberculosis, UniProt P9WMR3); test: DnaB intein splicing inhibitors, dose response, biochemical, cell-free fluorescence (AID 449749); type: functional
T1 sequence (P9WMR3 whole entry): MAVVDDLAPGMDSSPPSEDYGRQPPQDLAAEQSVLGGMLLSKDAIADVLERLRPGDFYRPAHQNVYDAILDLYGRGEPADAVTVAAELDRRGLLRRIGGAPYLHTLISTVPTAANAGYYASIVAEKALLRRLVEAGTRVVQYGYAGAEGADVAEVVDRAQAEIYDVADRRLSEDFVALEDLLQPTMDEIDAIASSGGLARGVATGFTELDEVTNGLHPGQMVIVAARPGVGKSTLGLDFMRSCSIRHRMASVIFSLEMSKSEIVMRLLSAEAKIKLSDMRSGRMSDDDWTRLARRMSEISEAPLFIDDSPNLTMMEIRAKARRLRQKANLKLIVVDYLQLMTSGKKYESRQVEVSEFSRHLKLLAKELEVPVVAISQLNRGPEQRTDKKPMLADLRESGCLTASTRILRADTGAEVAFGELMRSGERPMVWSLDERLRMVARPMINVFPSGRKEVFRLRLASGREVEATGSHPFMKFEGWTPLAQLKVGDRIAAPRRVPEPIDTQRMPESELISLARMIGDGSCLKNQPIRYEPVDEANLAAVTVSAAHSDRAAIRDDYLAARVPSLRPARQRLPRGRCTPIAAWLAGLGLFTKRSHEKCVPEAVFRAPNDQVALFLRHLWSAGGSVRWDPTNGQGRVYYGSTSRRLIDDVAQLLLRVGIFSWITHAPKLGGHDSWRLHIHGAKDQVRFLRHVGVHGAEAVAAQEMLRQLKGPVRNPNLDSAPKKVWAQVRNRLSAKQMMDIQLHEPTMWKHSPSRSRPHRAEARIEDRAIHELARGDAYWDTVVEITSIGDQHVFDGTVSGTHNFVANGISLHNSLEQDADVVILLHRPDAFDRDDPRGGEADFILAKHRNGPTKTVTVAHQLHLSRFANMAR

[7] = molecular target: T2, Protein RecA (Mycobacterium tuberculosis, UniProt P9WHJ3); test: Fluorescence Cell-Free Homogeneous Dose Retest to Identify Inhibitors of RecA-Intein Splicing Activity. [Related pubchem assays (depositor defined):AID2097, AID2223, AID489010, AID492950]; type: functional
T2 sequence (P9WHJ3 whole entry): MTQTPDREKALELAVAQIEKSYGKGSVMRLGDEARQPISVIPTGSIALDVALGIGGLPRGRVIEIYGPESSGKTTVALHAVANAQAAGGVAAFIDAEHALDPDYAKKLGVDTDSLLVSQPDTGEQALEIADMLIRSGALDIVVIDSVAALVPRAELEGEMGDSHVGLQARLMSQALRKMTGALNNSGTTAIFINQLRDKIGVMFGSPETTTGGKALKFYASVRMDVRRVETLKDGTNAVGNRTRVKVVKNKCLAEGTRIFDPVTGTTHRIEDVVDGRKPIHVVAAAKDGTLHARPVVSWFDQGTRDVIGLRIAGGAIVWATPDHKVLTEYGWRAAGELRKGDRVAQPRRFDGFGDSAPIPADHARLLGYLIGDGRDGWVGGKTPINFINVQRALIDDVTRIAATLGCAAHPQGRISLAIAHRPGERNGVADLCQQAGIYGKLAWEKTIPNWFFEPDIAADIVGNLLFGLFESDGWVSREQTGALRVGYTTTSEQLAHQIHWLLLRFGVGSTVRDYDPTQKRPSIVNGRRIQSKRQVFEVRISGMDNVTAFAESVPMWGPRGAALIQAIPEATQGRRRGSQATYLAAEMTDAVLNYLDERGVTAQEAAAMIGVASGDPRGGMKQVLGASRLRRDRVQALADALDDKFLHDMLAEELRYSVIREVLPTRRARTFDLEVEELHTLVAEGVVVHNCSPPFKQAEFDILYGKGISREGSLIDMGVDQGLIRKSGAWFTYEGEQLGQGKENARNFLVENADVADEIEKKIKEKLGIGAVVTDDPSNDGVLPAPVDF

[8] = molecular target: T3, Sentrin-specific protease 8 (Homo sapiens, UniProt Q96LD8); type: functional
T3 sequence (Q96LD8 whole entry): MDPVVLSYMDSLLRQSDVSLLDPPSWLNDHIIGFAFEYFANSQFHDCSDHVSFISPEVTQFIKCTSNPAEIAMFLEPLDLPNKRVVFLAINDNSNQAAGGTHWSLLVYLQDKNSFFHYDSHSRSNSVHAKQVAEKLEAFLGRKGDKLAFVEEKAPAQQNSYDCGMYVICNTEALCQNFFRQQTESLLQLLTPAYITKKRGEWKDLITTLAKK

[9] = molecular target: T3, Sentrin-specific protease 8; type: functional; remark: listed apart in the source
[10] = molecular target: T4, Histone-lysine N-methyltransferase NSD2 (Homo sapiens, UniProt O96028); type: biochemical
T4 sequence (O96028 whole entry): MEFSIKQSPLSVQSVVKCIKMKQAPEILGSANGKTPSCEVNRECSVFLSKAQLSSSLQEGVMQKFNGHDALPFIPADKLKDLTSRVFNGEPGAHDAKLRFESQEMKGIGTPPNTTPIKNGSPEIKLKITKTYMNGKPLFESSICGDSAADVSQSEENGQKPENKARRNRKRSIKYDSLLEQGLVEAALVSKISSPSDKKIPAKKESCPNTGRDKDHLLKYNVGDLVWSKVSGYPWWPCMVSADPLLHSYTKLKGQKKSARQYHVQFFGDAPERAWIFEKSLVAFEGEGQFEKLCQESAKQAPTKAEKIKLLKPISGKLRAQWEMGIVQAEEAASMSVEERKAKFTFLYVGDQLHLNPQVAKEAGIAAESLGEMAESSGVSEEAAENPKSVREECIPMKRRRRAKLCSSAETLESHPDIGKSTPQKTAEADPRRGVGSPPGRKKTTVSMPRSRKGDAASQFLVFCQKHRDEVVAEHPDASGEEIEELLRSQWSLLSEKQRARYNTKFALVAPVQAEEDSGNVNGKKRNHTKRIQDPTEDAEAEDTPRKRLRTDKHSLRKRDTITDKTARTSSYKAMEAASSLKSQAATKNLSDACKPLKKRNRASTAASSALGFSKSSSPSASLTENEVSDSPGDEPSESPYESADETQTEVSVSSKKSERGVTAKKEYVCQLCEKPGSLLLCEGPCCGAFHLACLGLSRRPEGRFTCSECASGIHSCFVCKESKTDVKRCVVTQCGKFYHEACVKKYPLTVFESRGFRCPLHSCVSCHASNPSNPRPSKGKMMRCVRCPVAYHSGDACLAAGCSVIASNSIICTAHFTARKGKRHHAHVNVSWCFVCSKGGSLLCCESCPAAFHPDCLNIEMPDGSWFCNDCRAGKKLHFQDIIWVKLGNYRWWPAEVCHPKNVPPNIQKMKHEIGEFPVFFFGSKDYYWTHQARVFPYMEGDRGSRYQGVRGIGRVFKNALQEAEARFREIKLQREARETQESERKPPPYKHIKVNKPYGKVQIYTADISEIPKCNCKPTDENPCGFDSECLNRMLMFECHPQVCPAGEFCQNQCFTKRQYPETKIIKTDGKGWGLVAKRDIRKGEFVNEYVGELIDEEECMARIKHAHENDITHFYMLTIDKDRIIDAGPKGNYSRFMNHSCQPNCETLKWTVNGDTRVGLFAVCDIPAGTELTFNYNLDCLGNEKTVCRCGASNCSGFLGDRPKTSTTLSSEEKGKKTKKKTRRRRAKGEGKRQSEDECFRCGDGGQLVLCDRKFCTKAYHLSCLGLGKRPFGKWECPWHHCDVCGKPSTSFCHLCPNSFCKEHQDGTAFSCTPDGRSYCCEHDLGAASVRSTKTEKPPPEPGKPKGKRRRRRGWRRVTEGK

[11] = luciferase reporter signal suppression in cells – H4 neuroglioma cells, luminescence, dose response (AID 1990); type: functional, cell-based
[12] = system: BJ; test: BJ-TERT fibroblast viability loss – cell-based, RAS-independent, luminescence, dose response (AID 1933); type: functional; details: Homo sapiens
[13] = Luminescence Cell-Based Dose Response HTS to Identify Inhibitors of 5'UTR Stem-Loop Driven Prion Protein mRNA Translation in H4 Neuroglioblastoma Cells. [Related pubchem assays: 1827 (Project Summary), 1813 (Primary HTS)]; type: functional
[14] = alpha-synuclein stem-loop luciferase translation blockers – H4 neuroglioma cells, luminescence, confirmation (AID 1988); type: functional, cell-based
[15] = system: BJ; test: cells; type: functional, cell-based; details: Homo sapiens
[16] = system: BJ; test: BJ-TERT-LT-ST fibroblast viability loss – cell-based, RAS-independent, luminescence, dose response (AID 1935); type: functional; details: Homo sapiens;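 also: BJ fibroblasts immortalized with TERT plus LT and ST oncogenes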
[17] = DRD fibroblast viability loss – cell-based, non-viral oncogenic, luminescence, dose response (AID 1934); type: functional; details: Homo sapiens

In the case of COc1ccc(-n2cc(C(=O)c3ccccc3O)cn2)cc1, the AC50 [1] is reported as 2.43 µM (active), the AC50 [2] is reported as > 52 µM (inactive) and the AC50 [3] is reported as 8.21 µM (active). For the same molecule, the AC50 [4] was 10.7 µM (active).
With O=C(COc1ccc(Cl)cc1)N1CCN(S(=O)(=O)c2ccc(Cl)cc2)CC1 the IC50 [5] was > 80 µM (inactive).
In the case of O=C(c1ccco1)N1CCN(C(=O)c2cc3c(s2)-c2ccccc2OC3)CC1, the IC50 [5] is reported as > 80 µM (inactive).
For N#CC(=C1CCCC1)c1nc(-c2ccc(Cl)cc2)cs1, the IC50 [5] was > 80 µM (inactive).
In the case of Cc1[nH][nH]c(=O)c1C(c1ccc(-c2ccc(Cl)c(Cl)c2)o1)c1c(C)[nH][nH]c1=O, the AC50 [6] is reported as 0.281 µM (active), the EC50 [7] is reported as 0.305 µM (active) and the IC50 [8] is reported as 18.8 µM (active). For the same molecule, the IC50 [9] was 8.73 µM (active).
In the case of COc1ccc(-c2ccc(C(c3c(C)n[nH]c3O)c3c(C)n[nH]c3O)o2)c([N+](=O)[O-])c1, the IC50 [8] is reported as 28.7 µM (active), the IC50 [9] is reported as 15.6 µM (active) and the AC50 [10] is reported as > 20 µM (inactive).
With COc1ccccc1N1CCN(C(=O)c2ccc3[nH]c(C)c(C)c3c2)CC1 the EC50 [11] was 3.53 µM (active), the EC50 [12] was 2.61 µM (active) and the EC50 [13] was 2.14 µM (active). For the same molecule, the EC50 [14] was 0.19 µM (active), the EC50 [15] was 68.5 µM (active) and the EC50 [16] was 2.22 µM (inconclusive). For the same molecule, the EC50 [17] was 2.4 µM (active) and the IC50 [5] was > 80 µM (inactive).
